Values joined by “and” are separate entries in the source; they are usually repeats but may differ in a detail not shown here. Identical values can stand only once. “Also recorded” adds a separate entry of the source.
Assays:
[1] = system: mu, kappa, and delta opioid receptors; experiment: Binding and enzyme target profile screen (Eurofins); settings: competitive binding screen, 10 uM
Protocol: These experiments were performed by an outside vendor (Eurofins, France). […] In each experiment, the respective reference compound was tested concurrently with the test compound to assess the assay reliability. […] Following incubation, the samples were filtered rapidly under vacuum through glass fiber filters presoaked in a buffer and rinsed several times with an ice-cold buffer using a 48-sample or 96-sample cell harvester. The filters were counted for radioactivity in a scintillation counter using a scintillation cocktail.

hM3Dq = hM3Dq (Homo sapiens, UniProt P20309, A239G/Y149C); experiment: [11C]clozapine PET DREADD occupancy in AAV-DREADD mice, hM3Dq; settings: 0.1 mg kg-1 IP, individual values, listed as J52
Protocol: Animals were anesthetized with isoflurane or a mix of ketamine/xylazine and prepped on a stereotaxic apparatus (Kopf, Germany). […] When indicated, animals were pretreated with vehicle or the indicated drug 10 min before the injection of the PET radiotracer. Total acquisition time was 60 min.
In all cases, the PET data were reconstructed and corrected for dead-time and radioactive decay. All qualitative and quantitative assessments of PET images were performed using the PMOD software environment (PMOD Technologies, Zurich Switzerland). Binding potential BPND (a relative measure of specific binding) was calculated using a reference tissue model using the cerebellum as a reference tissue in rodents. In macaques, the kinetic data were fitted to a two-tissue compartment model and the concentration of parent in plasma was used as an input function, then the volume of distribution ratios compared to cerebellum were calculated to establish BPND. In all cases, the dynamic PET images were coregistered to MRI templates and time-activity curves were generated using predefined volumes of interest (macaques) or manually drawn in rodents and the described analyses were performed. Receptor occupancy was calculated using the formula: occupancy = (BPND^0 − BPND^Drug)/BPND^0 × 100, where BPND^0 is the binding potential of the baseline condition and BPND^Drug the binding potential when the animals were pretreated with the drug.

[2] = Serum and CSF concentrations in monkey (LC-MS/MS); format: in vivo, rhesus monkey (Macaca mulatta); settings: 0.1 mg kg-1
Protocol: Monkey blood and CSF samples were collected from totally implanted subcutaneous access ports (Access Technologies, Virginia), connected to catheters indwelling in the femoral artery or intrathecal space of the spinal column, respectively. Rodent blood samples and brains were collected immediately following sacrifice at the indicated time points after intraperitoneal injection (10 ml kg^−1) in buffered saline. CSF was immediately frozen on dry ice and stored at −80 °C. Blood samples were allowed to coagulate for 15 min and then centrifuged at 4 °C for 15 min. Serum was collected from the supernatant and stored at a minimum of −30 °C until extraction. To 25 µl of serum, 5 µl of internal standard and 110 µl of methanol were added. Samples were centrifuged for 10 min at 16,200×g at 4 °C and the supernatant was transferred to the autosampler vial for analysis. Brains were cut in half and weighed prior to sample preparation. Half brains were homogenized in 490 µl of 85% ethanol: 15% water containing 0.1% formic acid and 5 µl of internal standard using a polytron homogenizer and centrifuged for 10 min at 16,200×g at 4 °C. […]
Data were acquired using a Nexera XR HPLC (Shimadzu) coupled with a QTRAP 6500 (SCIEX), and was analyzed with Analyst 1.6 (SCIEX). […]
The data were measured using standard curves and quality controls, but it was not validated to ICH guidelines. […]

hM4Di = molecular target: T1, hM4Di (Homo sapiens, UniProt P08173, A203G/Y113C); experiment: In vivo electrophysiology: ChrimsonR light-evoked responses in LA of mice expressing hM4Di in MGM terminals; design: 026219; host or cells: mouse brain, dopamine D1 receptor-expressing neurons (transgene); species or system mouse; settings: 0.1 mg kg-1 IP
T1 sequence (P08173 1-479 Y113C/A203G): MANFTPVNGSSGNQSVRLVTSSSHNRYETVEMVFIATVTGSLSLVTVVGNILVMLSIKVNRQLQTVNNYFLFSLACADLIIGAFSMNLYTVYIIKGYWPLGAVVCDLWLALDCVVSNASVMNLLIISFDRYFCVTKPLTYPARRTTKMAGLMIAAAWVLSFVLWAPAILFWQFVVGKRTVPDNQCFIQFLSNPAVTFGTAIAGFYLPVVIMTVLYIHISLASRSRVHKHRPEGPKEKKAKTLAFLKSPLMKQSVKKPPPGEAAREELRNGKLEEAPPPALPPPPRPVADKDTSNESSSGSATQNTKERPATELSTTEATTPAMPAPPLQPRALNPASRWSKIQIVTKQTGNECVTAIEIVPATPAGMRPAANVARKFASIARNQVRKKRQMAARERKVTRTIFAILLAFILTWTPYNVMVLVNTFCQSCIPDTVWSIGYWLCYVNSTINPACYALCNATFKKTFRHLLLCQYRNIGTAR
Protocol: Mice were purchased from Janvier Labs and stored in grouped cages (maximun 4 per cage) with ad libitum access to food and water, and in a 12 h light/dark cycle (lights on at 7:00 a.m.). All the experiments were performed in accordance to the national Danish law for the use of laboratory animals and approved by local authorities.
For AAV injection, mice were anaesthetized with Isoflurane and placed in a stereotaxic holder (Narishige, Japan). A trephine hole was drilled above the MGM (from bregma, AP 3.1 mm, ML 1.8 mm). Several injections of a mixture of ssAAV-8/2-hSyn1-hM4D(Gi)_mCherry-WPRE-hGHp(A) and ssAAV-8/2-hSyn1-oChIEF_ChrimsonR_mCitrine-WPRE-SV40pA (in a 1:4 viral particle ratio) were performed sequentially in different locations (AP 3.05 mm, ML 1.75 mm, DV 3.2 and 3.5 mm; second location AP 3.2 mm, ML 1.85 mm, DV 3.3 and 3.6 mm) so that a total of 4 injections of 0.5 µL were made to distribute the virus evenly through the desired location. Injections were made using a pressurized picospritzer and a pulled glass pipette. After viral injection, animals were kept for 4 weeks to ensure maximum virus expression through axon terminals.
For recording experiments, animals were anesthetized with […] urethane (i.p.), injected with 0.1 ml lidocaine (s.c.) in the incision points, and placed in a stereotaxic holder (Narishige, Japan). A trephine was drilled above the LA (from bregma, AP 1.5 mm, ML 3.1 mm) and the 32 channel opto-electrode was lowered whilst stimulating until a maximum response was located (DV 4 ± 0.2 mm). Body temperature was maintained constant at 37 °C through a feedback-regulated heating pad. Before recording, tissue was left for 10–20 mins for accommodation. Input–output test curves were recorded for both intensity and pulse length 30 min before and 1 h after drug injections using 1 ms-long pulses at 0.33 Hz (450 nm, 110 mA light intensity, ~14 mW, see Supplementary Fig. 10 Panel A). […]

hM3Dq, sequence (P20309 whole entry Y149C/A239G): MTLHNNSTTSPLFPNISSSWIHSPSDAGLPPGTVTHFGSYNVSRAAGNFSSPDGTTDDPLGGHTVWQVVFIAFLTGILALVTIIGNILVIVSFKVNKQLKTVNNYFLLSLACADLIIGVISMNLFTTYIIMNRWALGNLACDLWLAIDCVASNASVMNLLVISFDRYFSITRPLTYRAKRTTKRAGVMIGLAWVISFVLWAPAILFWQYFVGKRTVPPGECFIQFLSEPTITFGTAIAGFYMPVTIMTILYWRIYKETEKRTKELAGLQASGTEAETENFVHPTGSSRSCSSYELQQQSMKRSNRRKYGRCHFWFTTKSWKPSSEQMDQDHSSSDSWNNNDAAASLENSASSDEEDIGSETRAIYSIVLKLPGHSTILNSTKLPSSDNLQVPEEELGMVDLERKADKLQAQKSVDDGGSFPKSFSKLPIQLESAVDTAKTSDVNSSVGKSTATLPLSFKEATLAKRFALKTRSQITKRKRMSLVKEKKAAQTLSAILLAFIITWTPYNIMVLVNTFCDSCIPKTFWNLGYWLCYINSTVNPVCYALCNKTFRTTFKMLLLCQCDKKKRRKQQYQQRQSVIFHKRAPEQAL

Structure (SMILES): c1ccc2c(c1)N=C(N1CCNCC1)c1ccccc1N2 [C21]
- binding to opioid receptors [1]: exhibited binding to mu, kappa, and delta opioid receptors; also recorded: binds to opioid receptors

Structure (SMILES): CCN1CCN(C2=Nc3cc(Cl)ccc3Nc3cccc(F)c32)CC1 [JHU37152, 8-Chloro-11-(4-ethylpiperazin-1-yl)-1-fluoro-5H-dibenzo[b,e][1,4]diazepine]
- displacement of in vivo [11C]clozapine binding, hM3Dq (hM3Dq): 25.1963 and 16.746 and 26.3837

Structure (SMILES): CCN1CCN(C2=Nc3cc(Cl)ccc3Nc3c(F)cccc32)CC1 [JHU37160, 8-Chloro-11-(4-ethylpiperazin-1-yl)-4-fluoro-5H-dibenzo[b,e][1,4]diazepine]
- CSF concentration [2]: below our system’s detection limit
- serum detection [2]: detected in serum
- light-evoked response, % of baseline (maximal inhibition) (hM4Di; 30 min after injection): 19 ± 2 % of baseline
- inhibition of ChrimsonR-induced terminal activation (hM4Di; ~10 min): 60%
- light-evoked response, % of baseline (hM4Di; ~10 min): 36 ± 9 % of baseline

Source: publication PMC6788984, “High-potency ligands for DREADD imaging and activation in rodents and monkeys” (Nature Communications, 2019)
